Columns and labels:
oesophageal cancer [1] = experiment: Response to normal cisplatin chemotherapy in combination with radiation; type: in vivo, patients; conditions: Patient No. 1, after 2 months
Protocol: (§1) Patient No. 1 had oesophageal cancer, with one large lesion in the mediastinal region and large metastases in the liver. F-18-DG imaging confirmed the presence of both lesions. The patient was injected with ^195mPt-Cisplatin (100 MBq; specific activity 4.2 MBq/mg cisplatin) and imaged over a 5 day period. […] The patient was placed on a normal cisplatin chemotherapy in combination with radiation.

oesophageal cancer [2] = experiment: Pilot clinical study: imaging of uptake of ^195mPt-Cisplatin in lesions; type: in vivo, patients
Protocol: As part of a pilot study to evaluate the use of ^195mPt-Cisplatin and ^195mPt Carboplatin for prognosis of cancer, two patients were injected with ^195mPt-Cisplatin prepared as described in Example 2.
as §1
Patient No. 2 had oesophageal cancer. CT confirmed a large lesion in the mediastinal region. The patient was injected with ^195mPt-Cisplatin (50 MBq: specific activity 3.6 MBq/mg cisplatin) and Imaged over a 3 day period. […] The patient has undergone cisplatin chemotherapy and is being monitored for response to treatment.

| Structure (SMILES) | response to treatment (oesophageal cancer [1]) | uptake of the radiolabelled cisplatin in lesions (oesophageal cancer [2]; Patient No. 1, lesion in mediastinal region and liver metastases, injected 100 MBq (4.2 MBq/mg cisplatin), imaged over a 5 day period) | uptake of the ^195mPt-Cisplatin in the mediastinal region (oesophageal cancer [2]; Patient No. 2, large lesion in mediastinal region, injected 50 MBq (3.6 MBq/mg cisplatin), imaged over a 3 day period) |
| --- | --- | --- | --- |
| N.N.[Cl][Pt][Cl] [cisplatin, cis-dichlorodiammine-platinum(II)] | no evidence of response to treatment |  |  |
| N.N.[Cl][195Pt][Cl] [^195mPt-Cisplatin, [^195mPt]Cisplatin] |  | negligible uptake | significant uptake |

Reference: US7108845B2, “Methods of synthesis and use of radiolabelled platinum chemotherapeutic agents” (Australian Nuclear Science & Technology Organisation, priority 2000, dated 2006)
